Assay results as given in PMC7827406, “Structure–Activity Relationship (SAR) Study of Spautin-1 to Entail the Discovery of Novel NEK4 Inhibitors” (International Journal of Molecular Sciences, 2021).
Where two headings read alike, the source gives them in different places.

Key:
Assay in all cases: biochemical
Parameters in all cases: Eurofins KinaseProfiler full panel at Km ATP, residual kinase activity (%) relative to DMSO
ROCK-II(h) = target: T1, ROCK-II(h) (Homo sapiens, UniProt O75116)
T1 construct: gene ROCK2
Procedure, shortened: (§1)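 Radiometric kinase activity assays were run with ATP at Km and compounds at 10 µM, and remaining activity (%) was reported. A separate competitive binding screen measured DNA-tagged kinase displaced from immobilized active-site ligands by qPCR, giving percent kinase still bound at 10 µM compound in DMSO.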

ALK(h) = ALK(h) (Homo sapiens, UniProt Q9UM73)
ALK(h), sequence (Q9UM73 whole entry): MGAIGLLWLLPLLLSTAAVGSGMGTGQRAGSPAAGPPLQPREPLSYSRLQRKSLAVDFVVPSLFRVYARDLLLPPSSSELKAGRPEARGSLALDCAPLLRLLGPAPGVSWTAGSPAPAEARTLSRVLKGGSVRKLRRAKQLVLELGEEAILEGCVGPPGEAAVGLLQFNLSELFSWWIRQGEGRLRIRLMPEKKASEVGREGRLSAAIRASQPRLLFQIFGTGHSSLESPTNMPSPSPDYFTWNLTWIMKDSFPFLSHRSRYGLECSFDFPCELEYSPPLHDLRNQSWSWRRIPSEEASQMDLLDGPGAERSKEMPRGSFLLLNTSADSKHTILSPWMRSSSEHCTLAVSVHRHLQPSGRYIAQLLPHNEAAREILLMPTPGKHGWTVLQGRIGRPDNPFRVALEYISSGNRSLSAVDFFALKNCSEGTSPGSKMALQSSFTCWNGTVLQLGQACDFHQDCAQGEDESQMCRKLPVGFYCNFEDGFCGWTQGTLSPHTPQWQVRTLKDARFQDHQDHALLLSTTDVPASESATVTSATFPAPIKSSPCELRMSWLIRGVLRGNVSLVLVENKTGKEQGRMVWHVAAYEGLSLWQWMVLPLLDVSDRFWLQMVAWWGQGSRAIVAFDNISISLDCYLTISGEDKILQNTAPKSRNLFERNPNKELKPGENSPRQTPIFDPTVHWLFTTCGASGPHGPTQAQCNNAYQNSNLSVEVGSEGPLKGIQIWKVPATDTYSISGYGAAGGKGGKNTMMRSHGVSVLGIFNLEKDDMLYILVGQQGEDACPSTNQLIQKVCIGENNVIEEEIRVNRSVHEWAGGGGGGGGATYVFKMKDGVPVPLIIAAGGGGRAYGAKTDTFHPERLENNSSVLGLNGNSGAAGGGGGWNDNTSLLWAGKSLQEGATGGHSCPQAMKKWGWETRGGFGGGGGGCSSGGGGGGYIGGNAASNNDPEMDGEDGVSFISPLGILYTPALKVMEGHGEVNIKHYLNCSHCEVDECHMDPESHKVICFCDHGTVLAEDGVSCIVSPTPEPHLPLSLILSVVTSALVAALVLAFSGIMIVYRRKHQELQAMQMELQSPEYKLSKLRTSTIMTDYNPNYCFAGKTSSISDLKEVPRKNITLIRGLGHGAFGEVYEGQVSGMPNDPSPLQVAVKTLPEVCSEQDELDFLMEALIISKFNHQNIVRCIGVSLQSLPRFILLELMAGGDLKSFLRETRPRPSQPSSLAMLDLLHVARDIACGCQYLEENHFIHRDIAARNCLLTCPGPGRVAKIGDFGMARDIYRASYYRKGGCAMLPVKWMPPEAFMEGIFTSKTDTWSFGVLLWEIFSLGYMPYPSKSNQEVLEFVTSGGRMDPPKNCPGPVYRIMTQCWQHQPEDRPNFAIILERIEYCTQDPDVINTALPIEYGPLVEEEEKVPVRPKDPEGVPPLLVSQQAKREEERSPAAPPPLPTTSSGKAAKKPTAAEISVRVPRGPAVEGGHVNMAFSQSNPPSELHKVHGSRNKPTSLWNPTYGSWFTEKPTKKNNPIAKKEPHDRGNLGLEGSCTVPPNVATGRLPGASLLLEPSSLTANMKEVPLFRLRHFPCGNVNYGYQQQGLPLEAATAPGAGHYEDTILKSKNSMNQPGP
Procedure, shortened: as §1

Lck(h) = Lck(h) (Homo sapiens, UniProt P06239)
Lck(h), sequence (P06239 whole entry): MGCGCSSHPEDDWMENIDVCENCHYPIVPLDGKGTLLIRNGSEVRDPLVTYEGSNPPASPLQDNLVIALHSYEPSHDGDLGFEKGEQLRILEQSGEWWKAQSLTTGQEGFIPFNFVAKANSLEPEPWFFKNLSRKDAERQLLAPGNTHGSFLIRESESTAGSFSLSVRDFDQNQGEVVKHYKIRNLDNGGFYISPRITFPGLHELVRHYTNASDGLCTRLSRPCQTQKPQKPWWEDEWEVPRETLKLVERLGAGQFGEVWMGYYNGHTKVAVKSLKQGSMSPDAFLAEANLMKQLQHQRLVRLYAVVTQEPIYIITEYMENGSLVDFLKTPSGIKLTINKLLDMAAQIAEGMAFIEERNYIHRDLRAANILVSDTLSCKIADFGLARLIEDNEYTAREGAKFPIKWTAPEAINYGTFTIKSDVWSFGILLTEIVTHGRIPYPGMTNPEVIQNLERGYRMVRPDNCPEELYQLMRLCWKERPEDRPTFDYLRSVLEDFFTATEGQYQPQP
Procedure, shortened: as §1

PKCμ(h) = target: T2, PKCμ(h) (Homo sapiens, UniProt Q15139)
T2 construct: gene PRKD1
T2 sequence (Q15139 1-912): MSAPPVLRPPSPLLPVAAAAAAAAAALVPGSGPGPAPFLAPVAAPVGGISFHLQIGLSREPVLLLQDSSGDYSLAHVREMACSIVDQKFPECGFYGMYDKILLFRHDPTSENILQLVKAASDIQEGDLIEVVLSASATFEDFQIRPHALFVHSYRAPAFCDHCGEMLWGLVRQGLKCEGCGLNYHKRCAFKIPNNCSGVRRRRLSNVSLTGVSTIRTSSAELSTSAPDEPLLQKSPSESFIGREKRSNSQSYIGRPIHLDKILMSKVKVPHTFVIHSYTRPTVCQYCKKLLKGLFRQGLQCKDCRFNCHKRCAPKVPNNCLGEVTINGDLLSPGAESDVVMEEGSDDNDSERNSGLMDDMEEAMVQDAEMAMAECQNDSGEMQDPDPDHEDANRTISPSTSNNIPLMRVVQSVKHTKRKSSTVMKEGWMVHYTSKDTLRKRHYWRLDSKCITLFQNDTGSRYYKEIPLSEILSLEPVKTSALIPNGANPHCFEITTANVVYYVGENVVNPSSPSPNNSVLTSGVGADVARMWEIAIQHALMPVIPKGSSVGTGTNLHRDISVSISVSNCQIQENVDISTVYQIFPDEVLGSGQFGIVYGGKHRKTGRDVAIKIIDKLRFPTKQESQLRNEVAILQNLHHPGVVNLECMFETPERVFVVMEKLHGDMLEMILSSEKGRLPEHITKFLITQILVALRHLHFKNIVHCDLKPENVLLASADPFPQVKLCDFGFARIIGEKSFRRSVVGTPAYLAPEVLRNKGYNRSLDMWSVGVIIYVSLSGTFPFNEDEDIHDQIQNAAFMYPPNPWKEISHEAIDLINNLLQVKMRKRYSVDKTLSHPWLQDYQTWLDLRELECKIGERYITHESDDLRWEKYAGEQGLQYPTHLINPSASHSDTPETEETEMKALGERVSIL
Procedure, shortened: as §1

PDGFRα(V561D)(h) = target: T3, PDGFRα(V561D)(h) (Homo sapiens, UniProt P16234, V561D)
T3 construct: gene PDGFRA
T3 sequence (P16234 whole entry V561D): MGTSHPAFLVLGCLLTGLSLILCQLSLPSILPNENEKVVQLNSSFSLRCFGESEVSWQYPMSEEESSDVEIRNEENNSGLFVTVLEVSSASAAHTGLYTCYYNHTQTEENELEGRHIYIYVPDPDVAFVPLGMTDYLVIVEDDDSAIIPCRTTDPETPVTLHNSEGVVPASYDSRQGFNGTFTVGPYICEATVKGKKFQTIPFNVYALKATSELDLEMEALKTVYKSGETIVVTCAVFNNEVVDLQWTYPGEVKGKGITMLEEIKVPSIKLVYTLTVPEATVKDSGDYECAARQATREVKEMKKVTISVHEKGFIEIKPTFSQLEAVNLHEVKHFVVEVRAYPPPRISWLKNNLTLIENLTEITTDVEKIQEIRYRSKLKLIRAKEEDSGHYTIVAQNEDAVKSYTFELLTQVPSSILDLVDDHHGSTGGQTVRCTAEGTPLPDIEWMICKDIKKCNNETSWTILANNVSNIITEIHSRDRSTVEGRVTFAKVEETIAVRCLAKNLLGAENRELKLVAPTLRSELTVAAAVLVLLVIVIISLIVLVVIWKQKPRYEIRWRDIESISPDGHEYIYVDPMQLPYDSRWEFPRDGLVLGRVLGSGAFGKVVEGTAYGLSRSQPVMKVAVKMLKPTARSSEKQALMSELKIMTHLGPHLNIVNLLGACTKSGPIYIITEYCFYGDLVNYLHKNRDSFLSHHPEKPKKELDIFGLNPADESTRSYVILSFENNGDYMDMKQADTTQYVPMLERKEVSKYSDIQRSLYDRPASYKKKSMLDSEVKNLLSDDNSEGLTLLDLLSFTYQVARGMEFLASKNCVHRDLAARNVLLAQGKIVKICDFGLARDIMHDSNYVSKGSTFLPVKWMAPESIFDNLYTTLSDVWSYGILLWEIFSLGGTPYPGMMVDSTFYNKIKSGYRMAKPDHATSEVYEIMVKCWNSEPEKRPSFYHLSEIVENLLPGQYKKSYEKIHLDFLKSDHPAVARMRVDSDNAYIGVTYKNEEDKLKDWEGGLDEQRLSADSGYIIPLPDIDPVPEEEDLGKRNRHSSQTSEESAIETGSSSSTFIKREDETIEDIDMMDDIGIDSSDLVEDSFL
Procedure, shortened: as §1

Plk1(h) = Plk1(h) (Homo sapiens, UniProt P53350)
Plk1(h), sequence (P53350 whole entry): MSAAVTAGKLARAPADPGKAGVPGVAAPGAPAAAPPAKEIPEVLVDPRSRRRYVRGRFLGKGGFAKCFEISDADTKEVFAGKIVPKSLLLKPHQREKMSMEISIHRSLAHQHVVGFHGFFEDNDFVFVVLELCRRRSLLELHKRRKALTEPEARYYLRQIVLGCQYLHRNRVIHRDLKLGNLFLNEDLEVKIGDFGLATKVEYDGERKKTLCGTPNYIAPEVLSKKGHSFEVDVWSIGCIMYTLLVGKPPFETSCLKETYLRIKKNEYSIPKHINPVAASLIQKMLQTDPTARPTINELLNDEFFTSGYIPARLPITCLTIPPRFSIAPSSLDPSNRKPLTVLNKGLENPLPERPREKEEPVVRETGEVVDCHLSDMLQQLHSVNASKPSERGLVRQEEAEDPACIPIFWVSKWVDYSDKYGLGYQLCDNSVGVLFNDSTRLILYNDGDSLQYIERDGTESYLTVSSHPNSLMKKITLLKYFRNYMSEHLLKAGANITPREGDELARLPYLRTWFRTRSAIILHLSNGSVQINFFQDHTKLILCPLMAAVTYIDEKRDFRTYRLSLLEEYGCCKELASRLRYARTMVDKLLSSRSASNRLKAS
Procedure, shortened: as §1

ChaK1(h) = target: T4, ChaK1(h) (Homo sapiens, UniProt Q96QT4)
T4 construct: gene TRPM7
Procedure, shortened: as §1

RIPK1(h) = target: T5, RIPK1(h) (Homo sapiens, UniProt Q13546)
T5 sequence (Q13546 1-671): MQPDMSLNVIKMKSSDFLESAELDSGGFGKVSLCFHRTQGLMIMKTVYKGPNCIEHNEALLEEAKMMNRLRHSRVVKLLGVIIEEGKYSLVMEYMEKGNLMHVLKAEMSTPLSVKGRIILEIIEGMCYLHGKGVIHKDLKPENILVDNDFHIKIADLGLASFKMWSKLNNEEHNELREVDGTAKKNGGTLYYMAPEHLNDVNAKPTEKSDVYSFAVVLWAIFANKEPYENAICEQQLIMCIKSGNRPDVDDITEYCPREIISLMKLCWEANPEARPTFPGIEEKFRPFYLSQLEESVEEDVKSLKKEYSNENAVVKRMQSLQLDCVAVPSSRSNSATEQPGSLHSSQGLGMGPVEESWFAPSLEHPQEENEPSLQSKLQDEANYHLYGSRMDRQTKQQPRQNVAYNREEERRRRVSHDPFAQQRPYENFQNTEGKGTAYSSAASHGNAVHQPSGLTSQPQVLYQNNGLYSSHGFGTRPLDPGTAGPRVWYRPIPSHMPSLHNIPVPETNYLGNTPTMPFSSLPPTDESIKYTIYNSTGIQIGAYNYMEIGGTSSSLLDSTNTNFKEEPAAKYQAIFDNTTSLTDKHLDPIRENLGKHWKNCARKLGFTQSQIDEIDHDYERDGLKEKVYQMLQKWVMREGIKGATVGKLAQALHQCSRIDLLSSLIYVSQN
Procedure, shortened: as §1

Fms(Y969C)(h) = target: T6, Fms(Y969C)(h) (Homo sapiens, UniProt P07333, Y969C)
T6 construct: gene CSF1R
T6 sequence (P07333 whole entry Y969C): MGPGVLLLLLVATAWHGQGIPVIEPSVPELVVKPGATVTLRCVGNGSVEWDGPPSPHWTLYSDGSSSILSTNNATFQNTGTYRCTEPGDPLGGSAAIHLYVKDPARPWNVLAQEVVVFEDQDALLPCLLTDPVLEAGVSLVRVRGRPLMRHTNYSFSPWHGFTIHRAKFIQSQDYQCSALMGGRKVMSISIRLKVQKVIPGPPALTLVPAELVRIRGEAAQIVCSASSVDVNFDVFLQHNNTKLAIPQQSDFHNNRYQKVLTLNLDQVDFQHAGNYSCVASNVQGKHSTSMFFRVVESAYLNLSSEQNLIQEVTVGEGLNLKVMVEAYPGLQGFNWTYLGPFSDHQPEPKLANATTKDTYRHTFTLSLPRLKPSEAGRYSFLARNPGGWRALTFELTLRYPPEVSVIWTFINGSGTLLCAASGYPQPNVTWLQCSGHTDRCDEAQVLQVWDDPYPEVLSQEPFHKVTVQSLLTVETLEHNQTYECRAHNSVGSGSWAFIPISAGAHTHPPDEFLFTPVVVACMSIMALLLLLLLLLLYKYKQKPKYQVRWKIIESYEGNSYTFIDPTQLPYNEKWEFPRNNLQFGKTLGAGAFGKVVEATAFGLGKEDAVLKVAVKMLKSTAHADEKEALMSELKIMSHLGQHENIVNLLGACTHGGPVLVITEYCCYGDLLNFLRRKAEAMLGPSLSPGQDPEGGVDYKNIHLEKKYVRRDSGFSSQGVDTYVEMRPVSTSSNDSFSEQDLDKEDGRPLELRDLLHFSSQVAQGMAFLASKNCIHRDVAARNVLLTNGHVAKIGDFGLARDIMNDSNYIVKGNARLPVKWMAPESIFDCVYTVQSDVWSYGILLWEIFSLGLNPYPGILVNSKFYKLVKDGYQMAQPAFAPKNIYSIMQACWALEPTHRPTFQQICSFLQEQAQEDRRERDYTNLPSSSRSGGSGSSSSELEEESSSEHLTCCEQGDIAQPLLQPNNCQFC
Procedure, shortened: as §1

[1] = read-out: Residual activity (%) 5at
[2] = read-out: Residual activity (%) 5as
[3] = read-out: Residual activity (%) 5ay
[4] = read-out: Residual activity (%) Spautin-1 5aa

SMILES: Fc1ccc2ncnc(NCCc3ccc(Cl)cc3)c2c1 [5at, N-[2-(4-Chlorophenyl)Ethyl]-6-Fluoro-4-Quinazolinamine]
- remaining activity at 10 µM (ROCK-II(h); [1]): 79%
- remaining activity at 10 µM (ALK(h); [1]): 86%
- remaining activity at 10 µM (Lck(h); [1]): 82%
- remaining activity at 10 µM (PKCμ(h); [1]): 80%
- remaining activity at 10 µM (PDGFRα(V561D)(h); [1]): 90%
- remaining activity at 10 µM (Plk1(h); [1]): 92%
- remaining activity at 10 µM (ChaK1(h); [1]): 82%
- remaining activity at 10 µM (RIPK1(h); [1]): 80%
- remaining activity at 10 µM (Fms(Y969C)(h); [1]): 78%

SMILES: Fc1ccc(CCNc2ncnc3ccc(F)cc23)cc1 [5as, 6-Fluoro-N-[2-(4-Fluorophenyl)Ethyl]-4-Quinazolinamine]
- remaining activity at 10 µM (ROCK-II(h); [2]): 81%
- remaining activity at 10 µM (ALK(h); [2]): 59%
- remaining activity at 10 µM (Lck(h); [2]): 94%
- remaining activity at 10 µM (PKCμ(h); [2]): 85%
- remaining activity at 10 µM (PDGFRα(V561D)(h); [2]): 92%
- remaining activity at 10 µM (Plk1(h); [2]): 96%
- remaining activity at 10 µM (ChaK1(h); [2]): 81%
- remaining activity at 10 µM (RIPK1(h); [2]): 73%
- remaining activity at 10 µM (Fms(Y969C)(h); [2]): 80%

SMILES: COc1ccc2ncnc(Nc3cccc(F)c3)c2c1 [5ay, N-(3-Fluorophenyl)-6-Methoxy-4-Quinazolinamine]
- remaining activity at 10 µM (ROCK-II(h); [3]): 84%
- remaining activity at 10 µM (ALK(h); [3]): 72%
- remaining activity at 10 µM (Lck(h); [3]): 78%
- remaining activity at 10 µM (PKCμ(h); [3]): 93%
- remaining activity at 10 µM (PDGFRα(V561D)(h); [3]): 98%
- remaining activity at 10 µM (Plk1(h); [3]): 96%
- remaining activity at 10 µM (ChaK1(h); [3]): 77%
- remaining activity at 10 µM (RIPK1(h); [3]): 78%
- remaining activity at 10 µM (Fms(Y969C)(h); [3]): 87%

SMILES: Fc1ccc(CNc2ncnc3ccc(F)cc23)cc1 [5aa, 6-Fluoro-N-(4-fluorobenzyl)-4-Quinazolinamine]
- remaining activity at 10 µM (ROCK-II(h); [4]): 88%
- remaining activity at 10 µM (ALK(h); [4]): 82%
- remaining activity at 10 µM (Lck(h); [4]): 90%
- remaining activity at 10 µM (PKCμ(h); [4]): 97%
- remaining activity at 10 µM (PDGFRα(V561D)(h); [4]): 86%
- remaining activity at 10 µM (Plk1(h); [4]): 93%
- remaining activity at 10 µM (ChaK1(h); [4]): 86%
- remaining activity at 10 µM (RIPK1(h); [4]): 86%
- remaining activity at 10 µM (Fms(Y969C)(h); [4]): 81%
